Test results as given in article PMC12314892, “Macrocyclic Phage Display for Identification of Selective Protease Substrates” (Journal of the American Chemical Society, 2025).
*1 amine or outer side, *2 acyl side, *3 side chain or, on linkers, in order; H or OH if unused. Where a SMILES comes first, the peptide text is derived from it. Bridges are numbered along the chain shown (N, C = ends). The star is where a group is joined. X1 = NC(=O)Cc1cc(=O)oc2cc(NC(=O)[C@@H]3CCCN3C(=O)Cn3nc(C[*:1])cc3C[*:2])ccc12; X2 = NC(=O)Cc1cc(=O)oc2cc(NC(=O)[C@@H]3CCCN3C(=O)Cn3nc(C[*:2])cc3C[*:1])ccc12; AMC = Cc1cc(=O)oc2cc(N*)ccc12; Cbz = O=C(OCc1ccccc1)*

Columns and labels:
[1] = molecular target: T1, Recombinant Human DPP4 (Homo sapiens, UniProt P27487); assay: Kinetic evaluation of substrates; assay type: biochemical; conditions: for SI (selectivity index, coefficient of the proteases kcat/Km), FAPα vs DPP4: kcat/KM FAPα over kcat/KM DPP4
T1 construct: purchased Sino Biological 10688-HNCH-10
Experimental: (§1) Fluorogenic Substrate Cleavage Assay
(§2) The following proteases were used for the activity assay: Recombinant Human FAPα Protein, CF (R&D Systems, Catalog No.: 3715-SE-010), Recombinant Human Prolyl Oligopeptidase/PREP Protein, CF (R&D Systems, Catalog No.: 4308-SE-010). Recombinant Human DPP9 Protein, CF (R&D Systems, Catalog No.: 5419-SE-010). Recombinant Human DPP4 Protein (Sino Biological, Catalog No.: 10688-HNCH-10). The buffers used for the activity assay were: FAPα - 50 mM Tris, 1 M NaCl, 1 mg/mL BSA, pH 7.5, PREP- 25 mM Tris, 250 mM NaCl, 2.5 mM DTT, pH 7.5 (DTT was freshly added immediately before use), DPP9- 25 mM Tris, pH 7.5, DPP4- 25 mM Tris, pH
(§3) 7.5. The following commercial substrates were used: zGP-AMC (Bachem,Catalog No.: […]
(§4) conducted in Greiner Bio-One black microplates of 384 wells and polystyrene F-bottom (Catalog No.: 784076). All compounds were dissolved in DMSO at a concentration of 10 mM and then diluted into the respective buffer to the desired final concentration. The protease was added to the specified concentration before the fluorescence measurements. For fluorescence measurements, 2 μL of substrate was further diluted into 6 μL of buffer, followed by addition of 2 μL of enzyme in buffer. For no enzyme controls 2 μL of substrate was diluted into 8 μL of buffer.
(§5) The fluorescence was measured using a Cytation 3 plate reader (BioTek). All experiments have at least three technical replicates. All assays were conducted at 37°C for a minimum of 90 min, unless otherwise noted. Fluorescence measurements were performed at ex/em, 355/460 nm for ACC substrates. The substrates velocity was quantified by calculating the slope of the linear phase of the reaction as relative fluorescence units (RFU) per min.
(§6) Kinetic evaluation of substrates
(§7) To order to determine the kcat/KM, the previously indicated proteases were tested under their corresponding buffer conditions. Substrates were serially diluted in water, and 2 µL of each dilution was added to 6 µL of assay buffer in a 384-well plate. The plate was briefly centrifuged to ensure proper mixing and to eliminate air bubbles. Fluorescence measurements were initiated by adding 2 µL of the protease solution (prepared in activity buffer) to each well, yielding a final volume of 10 µL. Reactions were monitored at 37 °C for 60 minutes using a plate reader set to excitation/emission wavelengths of 355/460 nm. Control wells without enzyme contained 8 µL of assay buffer, instead of enzyme, and 2 µL of substrate. All measurements were performed in at least triplicate. The initial linear portion of each fluorescence progress curve was used to calculate initial reaction velocities (RFU/min). Calibration curves using free AMC were generated under the corresponding buffer and assay conditions to allow extrapolation of RFU values to µM concentrations. Michaelis-Menten kinetic parameters K M, kcat and kcat/,KM were determined using […]
(§8) GraphPad Prism version 10.4.1. […]
(§9) determined due to poor model fit. […]

[2] = molecular target: T2, Recombinant Human FAPα (Homo sapiens, UniProt Q12884); assay: Kinetic evaluation of substrates; assay type: biochemical; conditions: for kcat/KM / kcat / Km: 10 nM FAPα, 37 °C, 60 min, Michaelis-Menten fit, triplicates; for kcat / Km: ± SD; for Km: 50 mM Tris, 1 M NaCl, 1 mg/mL BSA, pH 7.5, ex/em 355/460 nm
T2 construct: purchased R&D Systems 3715-SE-010
T2 sequence (Q12884 1-760): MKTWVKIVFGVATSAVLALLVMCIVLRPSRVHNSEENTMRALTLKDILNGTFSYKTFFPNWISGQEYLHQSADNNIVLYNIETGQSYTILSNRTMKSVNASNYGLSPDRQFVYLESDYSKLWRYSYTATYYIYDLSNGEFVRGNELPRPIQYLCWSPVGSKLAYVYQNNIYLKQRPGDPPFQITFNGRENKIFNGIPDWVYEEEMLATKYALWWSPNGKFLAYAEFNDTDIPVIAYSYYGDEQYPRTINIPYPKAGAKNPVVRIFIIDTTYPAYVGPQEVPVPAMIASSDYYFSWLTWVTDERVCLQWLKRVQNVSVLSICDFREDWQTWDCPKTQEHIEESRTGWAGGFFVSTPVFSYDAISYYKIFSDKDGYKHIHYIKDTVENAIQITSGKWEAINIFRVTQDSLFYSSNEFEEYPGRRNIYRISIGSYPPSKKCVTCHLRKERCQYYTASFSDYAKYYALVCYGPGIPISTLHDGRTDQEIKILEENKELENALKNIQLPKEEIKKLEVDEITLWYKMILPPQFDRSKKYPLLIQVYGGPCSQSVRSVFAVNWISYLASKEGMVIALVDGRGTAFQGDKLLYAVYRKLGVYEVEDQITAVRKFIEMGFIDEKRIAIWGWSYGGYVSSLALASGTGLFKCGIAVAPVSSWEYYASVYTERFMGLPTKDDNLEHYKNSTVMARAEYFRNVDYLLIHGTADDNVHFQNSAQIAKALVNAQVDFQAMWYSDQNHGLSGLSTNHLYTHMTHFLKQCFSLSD
Experimental: as §1, §2, §3, §4, §5, §6, §7, §8, §9

[3] = 3 nM DPP4, 37 °C, 60 min, Michaelis-Menten fit, triplicates
[4] = 3 nM DPP4, 37 °C, 60 min, Michaelis-Menten fit, triplicates, ± SD

T1 sequence (P27487 whole entry): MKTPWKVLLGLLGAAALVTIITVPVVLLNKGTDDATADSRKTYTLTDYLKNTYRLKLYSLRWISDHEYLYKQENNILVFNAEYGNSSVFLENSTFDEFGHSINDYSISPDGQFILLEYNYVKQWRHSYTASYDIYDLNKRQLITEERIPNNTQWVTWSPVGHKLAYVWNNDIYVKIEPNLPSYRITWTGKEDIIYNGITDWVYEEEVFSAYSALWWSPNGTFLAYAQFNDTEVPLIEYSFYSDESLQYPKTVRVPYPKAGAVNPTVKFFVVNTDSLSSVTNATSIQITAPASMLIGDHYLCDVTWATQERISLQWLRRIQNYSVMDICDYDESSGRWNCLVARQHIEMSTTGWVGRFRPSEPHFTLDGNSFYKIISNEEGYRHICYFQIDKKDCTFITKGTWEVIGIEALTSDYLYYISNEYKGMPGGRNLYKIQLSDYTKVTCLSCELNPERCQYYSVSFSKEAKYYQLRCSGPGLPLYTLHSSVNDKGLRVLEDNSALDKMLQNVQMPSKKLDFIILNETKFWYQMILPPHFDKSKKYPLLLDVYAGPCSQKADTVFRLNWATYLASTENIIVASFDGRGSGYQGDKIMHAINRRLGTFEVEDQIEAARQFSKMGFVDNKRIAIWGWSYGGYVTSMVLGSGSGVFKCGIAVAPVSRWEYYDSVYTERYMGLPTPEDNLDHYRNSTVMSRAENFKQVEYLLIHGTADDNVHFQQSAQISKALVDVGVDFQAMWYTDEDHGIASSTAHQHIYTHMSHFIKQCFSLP

| Structure (SMILES) | SI (selectivity index, coefficient of the proteases kcat/Km), FAPα vs DPP4 [1] | kcat/KM [2] | kcat [2] | Km ([1]; 3 nM DPP4, 25 mM Tris, pH 7.5, 37 °C, 60 min, ex/em 355/460 nm, Michaelis-Menten fit, triplicates, ± SD) | kcat/KM [1, 3] | kcat [1, 4] | Km [2] | SI (selectivity index, coefficient of the proteases kcat/Km), DPP4 vs FAPα ([2]; kcat/KM DPP4 over kcat/KM FAPα) |
| --- | --- | --- | --- | --- | --- | --- | --- | --- |
| CC(C)C[C@@H]1NC(=O)[C@H](CC(N)=O)NC(=O)[C@H](CCC(N)=O)NC(=O)[C@H](Cc2ccccc2)NC(=O)[C@H](CO)NC(=O)[C@H](C(C)C)NC(=O)[C@@H](N)CSCc2cc(nn2CC(=O)N2CCC[C@H]2C(=O)Nc2ccc3c(CC(N)=O)cc(=O)oc3c2)CSC[C@@H](C(=O)NCC(N)=O)NC(=O)[C@H](CC(=O)O)NC1=O [FAP-33.2] (H-CVSFQNLDCG-NH2; linker 1-9 via X2; N-terminus assumed) | FAPα >>>DPP4 | 23633 M⁻¹ s⁻¹ | 0.709 ± 0.034 s⁻¹ | – | – | – | – | – |
| Cc1cc(=O)oc2cc(NC(=O)[C@@H]3CCCN3C(=O)CN)ccc12 [GP-AMC] (H-Gly-Pro-{AMC}) | – | 637 M⁻¹ s⁻¹ | – | 52 ± 4 µM | 380000 M⁻¹ s⁻¹ | 19.9 ± 0.6 s⁻¹ | 103 ± 31 µM | 597 |
| Cc1cc(=O)oc2cc(NC(=O)[C@@H]3CCCN3C(=O)CNC(=O)OCc3ccccc3)ccc12 [zGP-AMC] (Cbz-Gly-Pro-{AMC}) | – | 155793 M⁻¹ s⁻¹ | 22.59 ± 4.99 s⁻¹ | – | – | – | 145 ± 60 µM | – |
| CC(C)[C@@H]1NC(=O)[C@@H](N)CSCc2cc(n(CC(=O)N3CCC[C@H]3C(=O)Nc3ccc4c(CC(N)=O)cc(=O)oc4c3)n2)CSC[C@@H](C(=O)NCC(N)=O)NC(=O)[C@H](CC(=O)O)NC(=O)[C@H](C)NC(=O)[C@H](CC(N)=O)NC(=O)[C@H](CCC(N)=O)NC(=O)[C@H](Cc2ccccc2)NC(=O)[C@H](CO)NC1=O [FAP-33.2A6] (H-CVSFQNADCG-NH2; linker 1-9 via X1; N-terminus assumed) | 6 | 28312 M⁻¹ s⁻¹ | 0.906 ± 0.050 s⁻¹ | – | 5168 M⁻¹ s⁻¹ | 0.460 ± 0.018 s⁻¹ | – | – |
